Values joined by “and” are separate entries in the source; they are usually repeats but may differ in a detail not shown here. Equal entries are not always repeated.
System: patients with treatment-resistant major depressive disorder (TRD)
Test: Phase 1/2 clinical trial of inhaled 5-MeO-DMT in TRD patients (12 mg, 18 mg, individualized dosing regimen IDR 6/12/18 mg)
Method: Patients were assigned to different groups. In the context of the present invention, the group who received a single, 12 mg dose and the group who underwent an intra-day individualized dosing regimen (IDR) that allowed for multiple, escalating doses (6 mg, 12 mg and 18 mg) within a single day, driven by the intensity of the patient-reported psychedelic experience are of interest.
The data gathered include the assessment of the treated patients against several scales including the Montgomery-Åsberg Depression Rating Scale (MADRS) and the Brief Psychiatric Rating Scale (BPRS).
This trial was designed in two parts. Part A was an open-label, single-arm, single-dose Phase 1 trial with two dose levels (12 mg (n=4) and 18 mg (n=4)). […] The primary endpoint of Part B was to assess the effects on the severity of depression, as assessed by the proportion of patients in remission on day seven after dosing, defined as a MADRS total score of less than or equal to 10.

Q: Which results are given for COc1ccc2[nH]cc(CCN(C)C)c2c1 [5-MeO-DMT]?
A: MADRS Concentration Difficulties improvement (points) (IDR n=8, 2 h): 19; MADRS Concentration Difficulties percentage improvement (IDR n=8, 2 h): 63% and 63.33%; MADRS Concentration Difficulties summed score (IDR n=8, 2 h): 11; MADRS Inability to Feel improvement (points) (IDR n=8, 2 h): 24; MADRS Inability to Feel percentage improvement (IDR n=8, 2 h): 67% and 66.67%; MADRS Inability to Feel summed score (IDR n=8, 2 h): 12; MADRS Inner Tension improvement (points) (IDR n=8, 2 h): 15; MADRS Inner Tension percentage improvement (IDR n=8, 2 h): 58% and 57.69%; MADRS Inner Tension summed score (IDR n=8, 2 h): 11; MADRS Lassitude improvement (points) (IDR n=8, 2 h): 17; MADRS Lassitude percentage improvement (IDR n=8, 2 h): 63% and 62.96%; MADRS Lassitude summed score (IDR n=8, 2 h): 10; MADRS Pessimistic Thoughts improvement (points) (IDR n=8, 2 h): 21; MADRS Pessimistic Thoughts percentage improvement (IDR n=8, 2 h): 75%; MADRS Pessimistic Thoughts summed score (IDR n=8, 2 h): 7; MADRS Suicidal Thoughts improvement (points) (IDR n=8, 2 h): 8; MADRS Suicidal Thoughts percentage improvement (IDR n=8, 2 h): 73% and 72.72%; MADRS Suicidal Thoughts summed score (IDR n=8, 2 h): 3; BPRS Anxiety improvement (points) (IDR n=8, 3 h): 18; BPRS Anxiety percentage improvement (IDR n=8, 3 h): 49% and 48.65%; BPRS Anxiety summed score (IDR n=8, 3 h): 19; BPRS Blunted Affect improvement (points) (IDR n=8, 3 h): 4; BPRS Blunted Affect percentage improvement (IDR n=8, 3 h): 27% and 26.67%; BPRS Blunted Affect summed score (IDR n=8, 3 h): 11; BPRS Emotional Withdrawal improvement (points) (IDR n=8, 3 h): 5; BPRS Emotional Withdrawal percentage improvement (IDR n=8, 3 h): 38% and 38.46%; BPRS Emotional Withdrawal summed score (IDR n=8, 3 h): 8; BPRS Guilt Feelings improvement (points) (IDR n=8, 3 h): 20; BPRS Guilt Feelings percentage improvement (IDR n=8, 3 h): 59% and 58.82%; BPRS Guilt Feelings summed score (IDR n=8, 3 h): 14; BPRS Tension improvement (points) (IDR n=8, 3 h): 5; BPRS Tension percentage improvement (IDR n=8, 3 h): 31% and 31.25%; BPRS Tension summed score (IDR n=8, 3 h): 11; BPRS Anxiety improvement (points) (IDR n=8, Day 1): 21; BPRS Anxiety percentage improvement (IDR n=8, Day 1): 57% and 56.76%; BPRS Anxiety summed score (IDR n=8, Day 1): 16; BPRS Blunted Affect improvement (points) (IDR n=8, Day 1): 7; BPRS Blunted Affect percentage improvement (IDR n=8, Day 1): 47% and 46.67%; BPRS Blunted Affect summed score (IDR n=8, Day 1): 8; BPRS Emotional Withdrawal improvement (points) (IDR n=8, Day 1): 5; BPRS Emotional Withdrawal percentage improvement (IDR n=8, Day 1): 38% and 38.46%; BPRS Emotional Withdrawal summed score (IDR n=8, Day 1): 8; BPRS Guilt Feelings improvement (points) (IDR n=8, Day 1): 23; BPRS Guilt Feelings percentage improvement (IDR n=8, Day 1): 68% and 67.65%; BPRS Guilt Feelings summed score (IDR n=8, Day 1): 11; BPRS Tension improvement (points) (IDR n=8, Day 1): 5; BPRS Tension percentage improvement (IDR n=8, Day 1): 31% and 31.25%; BPRS Tension summed score (IDR n=8, Day 1): 11; MADRS Concentration Difficulties improvement (points) (IDR n=8, Day 1): 29; MADRS Concentration Difficulties percentage improvement (IDR n=8, Day 1): 97% and 96.67%; MADRS Concentration Difficulties summed score (IDR n=8, Day 1): 1; MADRS Inability to Feel improvement (points) (IDR n=8, Day 1): 34; MADRS Inability to Feel percentage improvement (IDR n=8, Day 1): 94% and 94.44%; MADRS Inability to Feel summed score (IDR n=8, Day 1): 2; MADRS Inner Tension improvement (points) (IDR n=8, Day 1): 20; MADRS Inner Tension percentage improvement (IDR n=8, Day 1): 77% and 76.92%; MADRS Inner Tension summed score (IDR n=8, Day 1): 6; MADRS Lassitude improvement (points) (IDR n=8, Day 1): 22; MADRS Lassitude percentage improvement (IDR n=8, Day 1): 81% and 81.48%; MADRS Lassitude summed score (IDR n=8, Day 1): 5; MADRS Pessimistic Thoughts improvement (points) (IDR n=8, Day 1): 24; MADRS Pessimistic Thoughts percentage improvement (IDR n=8, Day 1): 86% and 85.71%; MADRS Pessimistic Thoughts summed score (IDR n=8, Day 1): 4; MADRS Reduced Sleep improvement (points) (IDR n=8, Day 1): 13; MADRS Reduced Sleep percentage improvement (IDR n=8, Day 1): 52%; MADRS Reduced Sleep summed score (IDR n=8, Day 1): 12; MADRS Suicidal Thoughts improvement (points) (IDR n=8, Day 1): 10; MADRS Suicidal Thoughts percentage improvement (IDR n=8, Day 1): 91% and 90.91%; MADRS Suicidal Thoughts summed score (IDR n=8, Day 1): 1; BPRS Anxiety improvement (points) (IDR n=8, Day 7): 20; BPRS Anxiety percentage improvement (IDR n=8, Day 7): 54% and 54.05%; BPRS Anxiety summed score (IDR n=8, Day 7): 17; BPRS Blunted Affect improvement (points) (IDR n=8, Day 7): 7; BPRS Blunted Affect percentage improvement (IDR n=8, Day 7): 47% and 46.67%; BPRS Blunted Affect summed score (IDR n=8, Day 7): 8; BPRS Emotional Withdrawal improvement (points) (IDR n=8, Day 7): 5; BPRS Emotional Withdrawal percentage improvement (IDR n=8, Day 7): 38% and 38.46%; BPRS Emotional Withdrawal summed score (IDR n=8, Day 7): 8; BPRS Guilt Feelings improvement (points) (IDR n=8, Day 7): 24; BPRS Guilt Feelings percentage improvement (IDR n=8, Day 7): 71% and 70.59%; BPRS Guilt Feelings summed score (IDR n=8, Day 7): 10; BPRS Tension improvement (points) (IDR n=8, Day 7): 6; BPRS Tension percentage improvement (IDR n=8, Day 7): 38% and 37.50%; BPRS Tension summed score (IDR n=8, Day 7): 10; MADRS Concentration Difficulties improvement (points) (IDR n=8, Day 7): 21; MADRS Concentration Difficulties percentage improvement (IDR n=8, Day 7): 70%; MADRS Concentration Difficulties summed score (IDR n=8, Day 7): 9; MADRS Inability to Feel improvement (points) (IDR n=8, Day 7): 30; MADRS Inability to Feel percentage improvement (IDR n=8, Day 7): 83% and 83.33%; MADRS Inability to Feel summed score (IDR n=8, Day 7): 6; MADRS Inner Tension improvement (points) (IDR n=8, Day 7): 14; MADRS Inner Tension percentage improvement (IDR n=8, Day 7): 54% and 53.85%; MADRS Inner Tension summed score (IDR n=8, Day 7): 12; MADRS Lassitude improvement (points) (IDR n=8, Day 7): 24; MADRS Lassitude percentage improvement (IDR n=8, Day 7): 89% and 88.89%; MADRS Lassitude summed score (IDR n=8, Day 7): 3; MADRS Pessimistic Thoughts improvement (points) (IDR n=8, Day 7): 25; MADRS Pessimistic Thoughts percentage improvement (IDR n=8, Day 7): 89% and 89.29%; MADRS Pessimistic Thoughts summed score (IDR n=8, Day 7): 3; MADRS Reduced Sleep improvement (points) (IDR n=8, Day 7): 16; MADRS Reduced Sleep percentage improvement (IDR n=8, Day 7): 64%; MADRS Reduced Sleep summed score (IDR n=8, Day 7): 9; MADRS Suicidal Thoughts improvement (points) (IDR n=8, Day 7): 8; MADRS Suicidal Thoughts percentage improvement (IDR n=8, Day 7): 73% and 72.73%; MADRS Suicidal Thoughts summed score (IDR n=8, Day 7): 3; patients with MADRS remission (primary endpoint) (IDR n=8, day seven): 87.5%; SAEs reported (Part A): No SAEs; safety laboratory analyses, vital signs, psychiatric safety assessments, measures of cognitive function (Part A and Part B): No clinically significant changes; patients who experienced at least one ADR (Part A, in both groups (12 mg and 18 mg)): 3 of 4; SAEs reported (Part B IDR): No SAEs; patients who experienced at least one ADR (Part B IDR n=8): 87.5%; patients achieving remission (fraction) (day 1): 8/8; patients achieving remission (fraction) (within 2 h after dosing): ⅝
